US20100137146A1, “Method of Screening Antibacterial Drug Compounds” (Temasek Lifesciences Laboratory, priority 2006, published 2010)

What was measured:
GFP-MreB D165E = GFP-MreB D165E (Escherichia coli, UniProt P0A9X4, D165E); details: GFP-MreB D165E in wild type fission yeast
Description: (§1) The MreB ATPase mutants were generated by overlap PCR with the following mutagenic primers: MOH2516 and MOH2517 for E143A and MOH2512 and MOH2513 for D165E along with the above-mentioned end primers (MOH2413 and MOH2414). The GFP-MreB mutants were all cloned into pREP42. All plasmids and mutations were verified by sequencing.
(§2) In bacteria, mutations in the vicinity of the ATP binding pocket of MreB confer A22 resistance. […] Plasmids expressing GFP-MreB E143A (see Garner et al., Science 306:1021-1025, 2004) or D165E (see Kruse et al., EMBO J. 22:5283-5292, 2003) were introduced into wild type fission yeast cells. Cultures were grown in the absence of thiamine to induce the expression of GFP fusion proteins. […] See FIGS. 15A (E143A) and 15B (D165E).

GFP-MreB E143A = GFP-MreB E143A (Escherichia coli, UniProt P0A9X4, E143A); details: GFP-MreB E143A in wild type fission yeast
Description: as §1, §2

MreB = target: T1, MreB (Escherichia coli, UniProt P0A9X4); format: cell-based, E. coli
T1 construct: the protein is expressed as a fusion of the full-length bacterial protein with a reporter; expressed in transfected cells; host or cells: Schizosaccharomyces pombe (pREP42-gfp-mreB, nmt42 promoter)
Protocol: GFP-MreB and FtsZ-GFP were expressed in S. pombe by growing the transformed cultures in the absence of thiamine for 16-20 hours. In the case of fission-yeast temperature-sensitive mutants carrying the GFP-MreB plasmid, cultures were grown in the absence of thiamine for 25-30 hours at 24° C. to allow sufficient expression of the protein. However, prior to the formation of MreB-polymers, the cultures were shifted to restrictive temperatures for a period of 4 hours. The cells were subsequently fixed and stained for actin or tubulin.
The cells were-either fixed with formaldehyde 0.7%) or observed live under a fluorescence microscope. Inhibition of MreB polymerization was achieved by the addition of A22 at a final concentration of 50 μg/ml after 14-16 hours of growth in the absence of thiamine. Cultures were allowed to grow further for a period of 6-8 hours before washing of A22 for time-lapse microscopy. The cells were mounted onto agarose slides, and images were acquired at fixed time intervals. Immunofluorescence was carried out as described in Balasubramanian et al., Meth. Enzymol. 283:494-495, 1997.
Next, whether MreB polymerization in fission yeast was mechanistically related to its polymerization in bacteria was assessed. Studies in bacteria have shown that the small molecule A22 affects the polymerization and/or maintenance of MreB polymers. To test whether A22 prevents polymerization of MreB in fission yeast, cells were treated with A22 prior to the induction of MreB expression. Cells expressing GFP-MreB were treated with the MreB-inhibitor A22 (0 minute time point) at a concentration of 50 μg/ml. The drug then was washed out, and cells were imaged by time-lapse microscopy.
To this end, cells containing preformed MreB bundles were treated with A22.

F-actin = target: T2, F-actin (Schizosaccharomyces pombe, UniProt P10989); experiment: F-actin staining (rhodamine-conjugated phalloidin) in S. pombe cells expressing GFP-MreB; format: cell-based; details: LatA 20 μg/ml for 10 minutes
T2 construct: endogenous in cells; host or cells: Schizosaccharomyces pombe cells expressing GFP-MreB
Protocol: S. pombe cells expressing GFP-MreB were fixed with methanol and incubated with tubulin (1:100) antibodies. Mouse secondary antibodies conjugated to Alexa-594™ were used at 1:400 for visualizing tubulin. For actin staining, cultures were fixed with formaldehyde (3.7%) and permeablized by using 1% Triton-X 100 in PBS. Rhodamine-conjugated phalloidin was used to visualize S. pombe actin. Latrunculin A (LatA) was added at a final concentration of 20 μg/ml for 10 minutes, and methyl 1-(butylcarbanoyl)-2-benzimidazolecarbamate (MBC) was added at a 25 μg/ml for 20 minutes. For methods, see Karagiannis et al., Mol. Biol. Cell 16:358-371, 2005 and Sawin et al., J. Cell Sci. 117:689-700, 2004, the disclosures of which are hereby incorporated by reference. For time-lapse imaging, LatA and MBC were included simultaneously in the agarose pads. […] Pictures were obtained with a CCD camera (CoolSnapHQ™, Photometrics™). The images were acquired and processed with Meta-morph™.
Studies therefore were performed to determine whether MreB assembly and maintenance was dependent on F-actin and microtubules. Cells were grown in the absence of thiamine to allow expression GFP-MreB. Cultures were then treated with LatA (20 μg/ml) for 10 minutes or methyl 1-butylcarbamoyl-2-benzimidazolecarbamate MBC (25 μg/ml) for 20 minutes to disrupt F-actin and microtubule, respectively. […]

T1 sequence (P0A9X4 whole entry, the tested form may be a part): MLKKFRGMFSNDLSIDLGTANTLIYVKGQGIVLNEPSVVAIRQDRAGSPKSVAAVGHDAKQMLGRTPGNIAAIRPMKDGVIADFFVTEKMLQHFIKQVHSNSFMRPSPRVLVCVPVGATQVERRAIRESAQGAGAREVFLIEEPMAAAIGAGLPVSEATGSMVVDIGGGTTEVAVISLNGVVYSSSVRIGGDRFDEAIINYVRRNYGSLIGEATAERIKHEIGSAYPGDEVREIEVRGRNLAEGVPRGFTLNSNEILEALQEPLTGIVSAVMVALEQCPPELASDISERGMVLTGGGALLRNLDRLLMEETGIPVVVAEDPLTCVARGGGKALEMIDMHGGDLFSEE
Chain of GFP-MreB E143A (P0A9X4 whole entry E143A): as the sequence (P0A9X4 whole entry, the tested form may be a part) above, with E143A counted along it
Chain of GFP-MreB D165E (P0A9X4 whole entry D165E): as the sequence (P0A9X4 whole entry, the tested form may be a part) above, with D165E counted along it

Row | Compound | Structures assembled by MreB ATPase mutant, sensitivity to A22 (GFP-MreB D165E) | Structures assembled by MreB ATPase mutant, sensitivity to A22 (GFP-MreB E143A) | MreB polymerization in fission yeast (MreB; A22 50 μg/ml, S. pombe cells expressing GFP-MreB, 0 minute time point before washout) | Reversibility of the effect on MreB polymerization (MreB; after removal of A22 (50 μg/ml), MreB filaments re-established at 20 minutes) | Severing and/or disassembly of preformed MreB bundles (MreB; cells with prominent GFP-MreB bundles cultured 1 hour with A22) | Maintenance of MreB bundles (MreB; LatA 20 μg/ml for 10 minutes) | MreB nucleation and assembly after A22 washout (MreB; simultaneous presence of LatA (20 μg/ml) and MBC (25 μg/ml) in agarose pads) | Effect on average growth rate of MreB bundles (MreB; simultaneous presence of LatA and MBC, rate without them 0.46±0.03 μm/min (n=44)) | Disruption of F-actin (F-actin)
1 | N=C(N)SCc1ccc(Cl)c(Cl)c1 [A22] | assembled similar structures both in the presence and absence of A22 | assembled similar structures both in the presence and absence of A22 | did not exhibit MreB polymers | reversible | pre-existing bundles were unaffected | – | – | – | –
2 | C/C1=C/C(=O)O[C@@H]2C[C@@H](CC[C@H](C)/C=C\C=C\CC1)O[C@@](O)([C@@H]1CSC(=O)N1)C2 [LatA, Latrunculin A] | – | – | – | – | – | remained unperturbed | MreB nucleated and assembled into polymers | did not vary significantly | completely disassembled
